The values that follow come from US10829501B2 (BRISTOL-MYERS SQUIBB COMPANY, priority 2016, dated 2020).

The term pIC50 denotes −log10 of the IC50, conventionally taken in molar units.

The assay addresses ROCK2 (Homo sapiens, UniProt O75116). In words: ROCK2 kinase inhibition assay (LABCHIP 3000 Reader, FITC peptide substrate).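 Note: rho kinase reaction read by separating phosphorylated from unphosphorylated peptide on chip, with inhibition of kinase activity computed per concentration across a dose-response series.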 The conditions noted are these: read-out: ROCK2 Activity (ROCK2 IC50); 5 μM ATP, 1.5 μM peptide substrate, pH 7.5.

pIC50: −log10 of the molar value.

Chain of ROCK2 (O75116 whole entry, species assumed): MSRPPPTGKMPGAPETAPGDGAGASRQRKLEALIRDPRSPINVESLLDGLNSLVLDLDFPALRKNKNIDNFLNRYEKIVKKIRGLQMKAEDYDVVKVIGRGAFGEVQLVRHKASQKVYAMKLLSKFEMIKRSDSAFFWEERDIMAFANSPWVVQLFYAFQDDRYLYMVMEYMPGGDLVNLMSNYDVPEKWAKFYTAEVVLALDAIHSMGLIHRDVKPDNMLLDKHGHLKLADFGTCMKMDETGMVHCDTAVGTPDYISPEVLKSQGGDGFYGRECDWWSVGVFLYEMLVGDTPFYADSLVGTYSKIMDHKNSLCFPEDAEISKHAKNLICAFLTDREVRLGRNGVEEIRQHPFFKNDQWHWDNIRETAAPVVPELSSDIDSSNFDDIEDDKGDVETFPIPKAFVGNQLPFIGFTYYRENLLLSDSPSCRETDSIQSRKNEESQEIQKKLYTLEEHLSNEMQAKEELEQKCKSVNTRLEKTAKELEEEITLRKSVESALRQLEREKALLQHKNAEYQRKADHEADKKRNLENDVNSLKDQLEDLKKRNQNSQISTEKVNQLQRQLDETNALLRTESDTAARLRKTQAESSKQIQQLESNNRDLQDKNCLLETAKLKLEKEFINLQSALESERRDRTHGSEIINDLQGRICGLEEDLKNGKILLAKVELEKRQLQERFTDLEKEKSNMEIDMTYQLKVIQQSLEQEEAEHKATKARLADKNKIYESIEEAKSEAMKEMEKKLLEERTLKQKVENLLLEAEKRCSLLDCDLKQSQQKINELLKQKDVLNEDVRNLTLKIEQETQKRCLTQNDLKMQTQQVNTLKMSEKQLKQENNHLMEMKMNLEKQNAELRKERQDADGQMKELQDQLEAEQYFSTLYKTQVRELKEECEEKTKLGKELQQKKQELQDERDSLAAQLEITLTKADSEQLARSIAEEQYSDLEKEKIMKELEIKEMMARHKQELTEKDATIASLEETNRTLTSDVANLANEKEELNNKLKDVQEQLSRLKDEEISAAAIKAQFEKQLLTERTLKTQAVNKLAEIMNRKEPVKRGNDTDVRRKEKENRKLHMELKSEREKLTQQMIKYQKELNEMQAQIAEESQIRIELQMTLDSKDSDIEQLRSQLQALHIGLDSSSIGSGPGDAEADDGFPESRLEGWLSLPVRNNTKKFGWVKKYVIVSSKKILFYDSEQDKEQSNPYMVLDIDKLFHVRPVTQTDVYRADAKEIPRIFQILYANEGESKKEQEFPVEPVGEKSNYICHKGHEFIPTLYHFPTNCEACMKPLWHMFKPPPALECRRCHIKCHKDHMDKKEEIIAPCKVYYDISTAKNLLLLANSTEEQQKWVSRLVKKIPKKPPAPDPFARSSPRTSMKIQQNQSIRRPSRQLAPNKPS

In the case of `NC(=O)c1cccnc1OC1CC2(CC(NC(=O)c3nc(C(F)F)n4cc(N5CCOCC5)ccc34)C2)C1` [Example 440, N-((aR)-6-((3-carbamoylpyridin-2-yl)oxy)spiro[3.3]heptan-2-yl)-3-(difluoromethyl)-6-morpholinoimidazo[1,5-a]pyridine-1-carboxamide], the pIC50 is over 8.30.

For `CC(C)(O)CCOc1ccc2c(C(=O)NC3CC4(C3)CC(Oc3ncccc3C(N)=O)C4)nc(C(F)F)n2c1` [Example 441, N-((aR)-6-((3-carbamoylpyridin-2-yl)oxy)spiro[3.3]heptan-2-yl)-3-(difluoromethyl)-6-(3-hydroxy-3-methylbutoxy)imidazo[1,5-a]pyridine-1-carboxamide], the pIC50 is over 8.30.

As for `CC(C)(O)CNc1ccc2c(C(=O)NC3CC4(C3)CC(Oc3ncccc3C(N)=O)C4)nc(C(F)F)n2c1` [Example 442, N-((aR)-6-((3-carbamoylpyridin-2-yl)oxy)spiro[3.3]heptan-2-yl)-3-(difluoromethyl)-6-((2-hydroxy-2-methylpropyl)amino)imidazo[1,5-a]pyridine-1-carboxamide], the pIC50 is 5.60 to 6.60.

For `CC(C)(CN)Oc1ccc2c(C(=O)NC3CC4(C3)CC(Oc3ncccc3C(N)=O)C4)nc(C(F)F)n2c1` [Example 443, 6-((1-amino-2-methylpropan-2-yl)oxy)-N-((aR)-6-((3-carbamoylpyridin-2-yl)oxy)spiro[3.3]heptan-2-yl)-3-(difluoromethyl)imidazo[1,5-a]pyridine-1-carboxamide], the pIC50 is 5.60 to 6.60.

Take `C[C@@H]1CN(c2ccc3c(C(=O)NC4CC5(C4)CC(Oc4ncccc4C(N)=O)C5)nc(C(F)F)n3c2)C[C@H](C)O1` (stereo partly drawn) [Example 444, N-((aR)-6-((3-carbamoylpyridin-2-yl)oxy)spiro[3.3]heptan-2-yl)-3-(difluoromethyl)-6-((2S,6R)-2,6-dimethylmorpholino)imidazo[1,5-a]pyridine-1-carboxamide]: the pIC50 was over 8.30.

As for `Cc1nn(C)cc1-c1ccc2c(C(=O)NC3CC4(C3)CC(Oc3ncccc3C(N)=O)C4)nc(C(F)F)n2c1` [Example 445, N-((aR)-6-((3-carbamoylpyridin-2-yl)oxy)spiro[3.3]heptan-2-yl)-3-(difluoromethyl)-6-(1,3-dimethyl-1H-pyrazol-4-yl)imidazo[1,5-a]pyridine-1-carboxamide], the pIC50 is over 8.30.

Take `Cc1ncc(-c2cc(C(=O)NC3CC4(C3)CC(Oc3ncccc3C(N)=O)C4)cc(C(F)(F)F)c2)s1` [Example 446, 2-(((aR)-6-(3-(2-methylthiazol-5-yl)-5-(trifluoromethyl)benzamido)spiro[3.3]heptan-2-yl)oxy)nicotinamide]: the pIC50 was over 8.30.

For the compound `Cn1cc(-c2cc(C(=O)NC3CC4(C3)CC(Oc3ncccc3C(N)=O)C4)cc(C(F)(F)F)c2)c(C(F)(F)F)n1` [Example 447, 2-(((aR)-6-(3-(1-methyl-3-(trifluoromethyl)-1H-pyrazol-4-yl)-5-(trifluoromethyl)benzamido)spiro[3.3]heptan-2-yl)oxy)nicotinamide], the pIC50 is 7.30 to 8.30.

With `Cc1nn(C)cc1-c1cc(C(=O)NC2CC3(C2)CC(Oc2ncccc2C(N)=O)C3)cc(C(F)(F)F)c1` [Example 448, 2-(((aR)-6-(3-(1,3-dimethyl-1H-pyrazol-4-yl)-5-(trifluoromethyl)benzamido)spiro[3.3]heptan-2-yl)oxy)nicotinamide], the pIC50 is over 8.30.

Take `Cn1cncc1-c1cc(C(=O)NC2CC3(C2)CC(Oc2ncccc2C(N)=O)C3)cc(C(F)(F)F)c1` [Example 449, 2-(((aR)-6-(3-(1-methyl-1H-imidazol-5-yl)-5-(trifluoromethyl)benzamido)spiro[3.3]heptan-2-yl)oxy)nicotinamide]: the pIC50 was 7.30 to 8.30.

Turning to `CC1(O)CCN(c2cc(C(=O)NC3CC4(C3)CC(Oc3ncccc3C(N)=O)C4)cc(C(F)(F)F)c2)CC1` [Example 450, 2-(((aR)-6-(3-(4-hydroxy-4-methylpiperidin-1-yl)-5-(trifluoromethyl)benzamido)spiro[3.3]heptan-2-yl)oxy)nicotinamide], the pIC50 is 7.30 to 8.30.

As for `NC(=O)c1cccnc1OC1CC2(CC(NC(=O)c3nc(C(F)F)n4cc(N5CCOC(CCO)C5)ccc34)C2)C1` [Example 451, N-((aR)-6-((3-carbamoylpyridin-2-yl)oxy)spiro[3.3]heptan-2-yl)-3-(difluoromethyl)-6-(2-(2-hydroxyethyl)morpholino)imidazo[1,5-a]pyridine-1-carboxamide], the pIC50 is 7.30 to 8.30.

Consider `NC(=O)c1cccnc1OC1CC2(CC(NC(=O)c3cc(N4CC5CC4CO5)cc(C(F)(F)F)c3)C2)C1` [Example 452, 2-(((aR)-6-(3-(2-oxa-5-azabicyclo[2.2.1]heptan-5-yl)-5-(trifluoromethyl)benzamido)spiro[3.3]heptan-2-yl)oxy)nicotinamide], for which the pIC50 was 7.30 to 8.30.

Take `CC(=O)N(C)Cc1ccc2c(C(=O)NC3CC4(C3)CC(Oc3ncccc3C(N)=O)C4)nc(C(F)F)n2c1` [Example 453, N-((aR)-6-((3-carbamoylpyridin-2-yl)oxy)spiro[3.3]heptan-2-yl)-3-(difluoromethyl)-6-((N-methylacetamido)methyl)imidazo[1,5-a]pyridine-1-carboxamide]: the pIC50 was 7.30 to 8.30.

Regarding `Cc1c(-c2cc(C(=O)NC3CC4(C3)CC(Oc3ncccc3C(N)=O)C4)cc(C(F)(F)F)c2)cnn1C` [Example 454, 2-(((aR)-6-(3-(1,5-dimethyl-1H-pyrazol-4-yl)-5-(trifluoromethyl)benzamido)spiro[3.3]heptan-2-yl)oxy)nicotinamide], the pIC50 is over 8.30.

On to `NC(=O)c1cccnc1OC1CC2(CC(NC(=O)c3nc(C(F)F)n4cc(N5CCN[C@H](CO)C5)ccc34)C2)C1` (stereo partly drawn) [Example 455, N-((aR)-6-((3-carbamoylpyridin-2-yl)oxy)spiro[3.3]heptan-2-yl)-3-(difluoromethyl)-6-((S)-3-(hydroxymethyl)piperazin-1-yl)imidazo[1,5-a]pyridine-1-carboxamide], for which the pIC50 is 7.30 to 8.30.

As to `NC(=O)c1cccnc1OC1CC2(CC(NC(=O)c3cc(N4CC5CCC(C4)O5)cc(C(F)(F)F)c3)C2)C1` [Example 456, 2-(((aR)-6-(3-(8-oxa-3-azabicyclo[3.2.1]octan-3-yl)-5-(trifluoromethyl)benzamido)spiro[3.3]heptan-2-yl)oxy)nicotinamide], the pIC50 was over 8.30.

For `Cc1nc(C(=O)NC2CC3(C2)CC(Oc2ncccc2C(N)=O)C3)c2ccc(Br)cn12` [Example 457, 6-bromo-N-((aR)-6-((3-carbamoylpyridin-2-yl)oxy)spiro[3.3]heptan-2-yl)-3-methylimidazo[1,5-a]pyridine-1-carboxamide], the pIC50 was 6.60 to 7.30.

Consider `Cc1c(-c2ccc3c(C(=O)NC4CC5(C4)CC(Oc4ncccc4C(N)=O)C5)nc(C)n3c2)cnn1C` [Example 458, N-((aR)-6-((3-carbamoylpyridin-2-yl)oxy)spiro[3.3]heptan-2-yl)-6-(1,5-dimethyl-H-pyrazol-4-yl)-3-methylimidazo[1,5-a]pyridine-1-carboxamide], for which the negative logarithm of the IC50 (pIC50) was 7.30 to 8.30.

Consider `Cc1nn(C)cc1-c1ccc2c(C(=O)NC3CC4(C3)CC(Oc3ncccc3C(N)=O)C4)nc(C)n2c1` [Example 459, N-((aR)-6-((3-carbamoylpyridin-2-yl)oxy)spiro[3.3]heptan-2-yl)-6-(1,3-dimethyl-1H-pyrazol-4-yl)-3-methylimidazo[1,5-a]pyridine-1-carboxamide], for which the pIC50 was 7.30 to 8.30.
